Each block holds one molecule with its values, some of them ahead of it.
How the values were obtained:
Eta agonist = Eta agonist (Homo sapiens, UniProt P25101); assay: Off-target profiling panel; format: cell-based; conditions: read-out: Inhibition by MBE1 at 10 μM (%)
op-mu = op-mu (Homo sapiens, UniProt P35372); assay: Off-target profiling panel; format: binding; conditions: read-out: Inhibition by MBE1 at 10 μM (%)
ROBO1 = target: T1, ROBO1 (Homo sapiens, UniProt Q9Y6N7); assay: Thermal proteome profiling (TPP) in A375 cells; format: cell-based; conditions: ROBO1, 100 nM
T1 construct: Treated A375 cells were harvested from 10 × 15 cm plates; endogenous in cells; host or cells: A375 melanoma cells

PVRL1 = target: T2, PVRL1 (Homo sapiens, UniProt Q15223); assay: Thermal proteome profiling (TPP) in A375 cells; format: cell-based; conditions: PVRL1, 1 uM
T2 construct: Treated A375 cells were harvested from 10 × 15 cm plates; endogenous in cells; host or cells: A375 melanoma cells

Alpha1A = Alpha1A (Homo sapiens, UniProt P35348); assay: Off-target profiling panel; format: binding; conditions: read-out: Inhibition by MBE1 at 10 μM (%)
RHPN2 = target: T3, RHPN2 (Homo sapiens, UniProt Q8IUC4); assay: Thermal proteome profiling (TPP) in A375 cells; format: cell-based; conditions: RHPN2, 100 nM
T3 construct: Treated A375 cells were harvested from 10 × 15 cm plates; endogenous in cells; host or cells: A375 melanoma cells

PDE4D2 = PDE4D2 (Homo sapiens, UniProt Q08499); assay: Off-target profiling panel; format: biochemical; conditions: read-out: Inhibition by MBE1 at 10 μM (%)
5HT1B = 5HT1B (Homo sapiens, UniProt P28222); assay: Off-target profiling panel; format: binding; conditions: read-out: Inhibition by MBE1 at 10 μM (%)
Plasma stability (human) = format: in vitro ADME; conditions: read-out: Plasma stability T1/2 (human)
MDA-MB-468 cells = conditions: MDA-MB-468, 24 hour incubation, highest tested dose 10 μM
CB1 = CB1 (Homo sapiens, UniProt P21554); assay: Off-target profiling panel; format: binding; conditions: read-out: Inhibition by MBE1 at 10 μM (%)
NET = NET (Homo sapiens, UniProt P23975); assay: Off-target profiling panel; format: binding; conditions: read-out: Inhibition by MBE1 at 10 μM (%)
MAO-A = MAO-A (Homo sapiens, UniProt P21397); assay: Off-target profiling panel; format: biochemical; conditions: read-out: Inhibition by MBE1 at 10 μM (%)
Beta1 = Beta1 (Homo sapiens, UniProt P08588); assay: Off-target profiling panel; format: binding; conditions: read-out: Inhibition by MBE1 at 10 μM (%)
COX1 = COX1 (Homo sapiens, UniProt P23219); assay: Off-target profiling panel; format: biochemical; conditions: read-out: Inhibition by MBE1 at 10 μM (%)
CDCP1 = target: T4, CDCP1 (Homo sapiens, UniProt Q9H5V8); assay: Thermal proteome profiling (TPP) in A375 cells; format: cell-based; conditions: CDCP1, 1 uM
T4 construct: Treated A375 cells were harvested from 10 × 15 cm plates; endogenous in cells; host or cells: A375 melanoma cells

MARCKSL1 = target: T5, MARCKSL1 (Homo sapiens, UniProt P49006); assay: Thermal proteome profiling (TPP) in A375 cells; format: cell-based; conditions: MARCKSL1, 1 uM
T5 construct: Treated A375 cells were harvested from 10 × 15 cm plates; endogenous in cells; host or cells: A375 melanoma cells

[1] = target: T6, ALDH1A3 in MCF7 or SUM159-M1a-ALDH1A3 knockout cells (Homo sapiens, UniProt P47895); assay: Aldefluor dose titration, cells with ectopic ALDH1A3; format: cell-based
T6 construct: expressed in transfected cells; host or cells: MCF7 wild-type; SUM159-M1a-ALDH1A3 knockout
Method: Next, we developed three orthogonal methods to assess MBE1.5 selectivity and potency in cellular assays, as these cellular assays provide a more physiologically relevant method to assess target engagement and specificity. […] We confirmed expression of each enzyme and then performed a dose titration of the Aldefluor assay in each cell derivative with MBE1.5. […] Therefore, we performed thermal proteome profiling (TPP) on A375 melanoma cells exposed to DMSO, 100 nM MBE1, and 1 μM MBE1. […] These two doses would be expected to saturate ALDH1A3 binding based on the biochemical affinity while the high dose may be expected to identify potential MBE1 off-targets. […] We next assessed for melting point changes in the dataset using a 1.5°C cutoff and p < 0.05; 112 proteins were identified in the comparison between 100 nM MBE1 and DMSO, including ALDH1A3. […] Finally, we validated that MBE1.5 blocked the physiological function of ALDH1A3 by testing a dose titration of MBE1.5 in the retinoid inhibition assay using MCF7-ALDH1A3 cell-based readout.
In addition, cells were suspended at a concentration of 100,000 cells per mL. […] Cells were analyzed by a BD LSRII for flow cytometry and were sorted using a FACSAria Fusion cell sorter (BD Biosciences) equipped with a 70 micron nozzle. […]

[2] = A-375, read-out: DMSO-1uM MBE1 TM shift

T4 sequence (Q9H5V8 30-836): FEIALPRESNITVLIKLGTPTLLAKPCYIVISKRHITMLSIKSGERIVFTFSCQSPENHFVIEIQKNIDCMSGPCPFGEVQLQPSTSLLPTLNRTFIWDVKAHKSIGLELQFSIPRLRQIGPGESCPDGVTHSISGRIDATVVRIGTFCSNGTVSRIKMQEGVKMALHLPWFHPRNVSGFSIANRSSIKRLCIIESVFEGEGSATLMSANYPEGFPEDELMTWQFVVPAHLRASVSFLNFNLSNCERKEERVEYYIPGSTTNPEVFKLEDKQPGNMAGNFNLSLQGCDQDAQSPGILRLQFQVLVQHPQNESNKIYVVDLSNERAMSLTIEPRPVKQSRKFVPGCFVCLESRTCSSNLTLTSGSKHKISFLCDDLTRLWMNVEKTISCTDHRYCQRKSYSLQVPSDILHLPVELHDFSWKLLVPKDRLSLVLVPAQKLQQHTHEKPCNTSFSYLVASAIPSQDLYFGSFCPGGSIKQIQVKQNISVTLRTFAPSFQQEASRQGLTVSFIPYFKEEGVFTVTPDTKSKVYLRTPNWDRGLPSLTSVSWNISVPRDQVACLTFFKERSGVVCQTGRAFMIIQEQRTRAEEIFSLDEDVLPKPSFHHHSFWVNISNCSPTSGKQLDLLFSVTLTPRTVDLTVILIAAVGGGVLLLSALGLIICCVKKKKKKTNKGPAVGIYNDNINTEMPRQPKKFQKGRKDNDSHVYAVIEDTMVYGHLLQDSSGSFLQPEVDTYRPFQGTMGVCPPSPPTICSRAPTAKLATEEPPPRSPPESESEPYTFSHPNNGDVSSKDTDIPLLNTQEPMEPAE
T2 sequence (Q15223 31-517): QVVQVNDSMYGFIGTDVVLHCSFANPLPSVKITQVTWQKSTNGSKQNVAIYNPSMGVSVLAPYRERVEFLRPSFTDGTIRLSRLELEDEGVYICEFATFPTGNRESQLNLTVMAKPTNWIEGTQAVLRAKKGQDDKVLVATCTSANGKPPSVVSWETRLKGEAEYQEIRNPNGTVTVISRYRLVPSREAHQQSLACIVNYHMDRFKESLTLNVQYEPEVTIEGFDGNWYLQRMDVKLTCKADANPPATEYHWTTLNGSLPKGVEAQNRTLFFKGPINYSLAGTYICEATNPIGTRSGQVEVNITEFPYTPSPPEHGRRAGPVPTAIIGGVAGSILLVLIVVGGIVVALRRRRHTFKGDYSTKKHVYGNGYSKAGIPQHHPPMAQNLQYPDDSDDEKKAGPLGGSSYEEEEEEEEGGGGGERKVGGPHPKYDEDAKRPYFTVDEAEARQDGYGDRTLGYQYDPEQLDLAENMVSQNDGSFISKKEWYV
T3 sequence (Q8IUC4 whole entry): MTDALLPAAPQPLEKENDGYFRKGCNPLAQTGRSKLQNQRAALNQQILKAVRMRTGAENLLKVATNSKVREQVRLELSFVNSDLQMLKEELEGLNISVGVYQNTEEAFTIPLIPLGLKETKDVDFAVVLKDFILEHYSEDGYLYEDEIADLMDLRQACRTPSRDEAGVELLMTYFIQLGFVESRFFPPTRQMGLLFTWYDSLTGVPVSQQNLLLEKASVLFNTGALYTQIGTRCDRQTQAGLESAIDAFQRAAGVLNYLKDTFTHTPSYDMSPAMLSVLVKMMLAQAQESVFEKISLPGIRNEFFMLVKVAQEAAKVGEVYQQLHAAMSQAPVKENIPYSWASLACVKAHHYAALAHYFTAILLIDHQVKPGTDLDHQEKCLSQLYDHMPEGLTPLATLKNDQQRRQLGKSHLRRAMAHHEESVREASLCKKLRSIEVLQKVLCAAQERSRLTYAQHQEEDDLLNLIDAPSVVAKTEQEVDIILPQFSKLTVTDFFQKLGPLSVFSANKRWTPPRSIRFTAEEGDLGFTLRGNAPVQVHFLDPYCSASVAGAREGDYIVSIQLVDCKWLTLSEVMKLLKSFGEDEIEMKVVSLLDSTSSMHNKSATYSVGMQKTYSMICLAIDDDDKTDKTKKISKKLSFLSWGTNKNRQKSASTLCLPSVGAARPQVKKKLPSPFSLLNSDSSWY
T1 sequence (Q9Y6N7 26-1651): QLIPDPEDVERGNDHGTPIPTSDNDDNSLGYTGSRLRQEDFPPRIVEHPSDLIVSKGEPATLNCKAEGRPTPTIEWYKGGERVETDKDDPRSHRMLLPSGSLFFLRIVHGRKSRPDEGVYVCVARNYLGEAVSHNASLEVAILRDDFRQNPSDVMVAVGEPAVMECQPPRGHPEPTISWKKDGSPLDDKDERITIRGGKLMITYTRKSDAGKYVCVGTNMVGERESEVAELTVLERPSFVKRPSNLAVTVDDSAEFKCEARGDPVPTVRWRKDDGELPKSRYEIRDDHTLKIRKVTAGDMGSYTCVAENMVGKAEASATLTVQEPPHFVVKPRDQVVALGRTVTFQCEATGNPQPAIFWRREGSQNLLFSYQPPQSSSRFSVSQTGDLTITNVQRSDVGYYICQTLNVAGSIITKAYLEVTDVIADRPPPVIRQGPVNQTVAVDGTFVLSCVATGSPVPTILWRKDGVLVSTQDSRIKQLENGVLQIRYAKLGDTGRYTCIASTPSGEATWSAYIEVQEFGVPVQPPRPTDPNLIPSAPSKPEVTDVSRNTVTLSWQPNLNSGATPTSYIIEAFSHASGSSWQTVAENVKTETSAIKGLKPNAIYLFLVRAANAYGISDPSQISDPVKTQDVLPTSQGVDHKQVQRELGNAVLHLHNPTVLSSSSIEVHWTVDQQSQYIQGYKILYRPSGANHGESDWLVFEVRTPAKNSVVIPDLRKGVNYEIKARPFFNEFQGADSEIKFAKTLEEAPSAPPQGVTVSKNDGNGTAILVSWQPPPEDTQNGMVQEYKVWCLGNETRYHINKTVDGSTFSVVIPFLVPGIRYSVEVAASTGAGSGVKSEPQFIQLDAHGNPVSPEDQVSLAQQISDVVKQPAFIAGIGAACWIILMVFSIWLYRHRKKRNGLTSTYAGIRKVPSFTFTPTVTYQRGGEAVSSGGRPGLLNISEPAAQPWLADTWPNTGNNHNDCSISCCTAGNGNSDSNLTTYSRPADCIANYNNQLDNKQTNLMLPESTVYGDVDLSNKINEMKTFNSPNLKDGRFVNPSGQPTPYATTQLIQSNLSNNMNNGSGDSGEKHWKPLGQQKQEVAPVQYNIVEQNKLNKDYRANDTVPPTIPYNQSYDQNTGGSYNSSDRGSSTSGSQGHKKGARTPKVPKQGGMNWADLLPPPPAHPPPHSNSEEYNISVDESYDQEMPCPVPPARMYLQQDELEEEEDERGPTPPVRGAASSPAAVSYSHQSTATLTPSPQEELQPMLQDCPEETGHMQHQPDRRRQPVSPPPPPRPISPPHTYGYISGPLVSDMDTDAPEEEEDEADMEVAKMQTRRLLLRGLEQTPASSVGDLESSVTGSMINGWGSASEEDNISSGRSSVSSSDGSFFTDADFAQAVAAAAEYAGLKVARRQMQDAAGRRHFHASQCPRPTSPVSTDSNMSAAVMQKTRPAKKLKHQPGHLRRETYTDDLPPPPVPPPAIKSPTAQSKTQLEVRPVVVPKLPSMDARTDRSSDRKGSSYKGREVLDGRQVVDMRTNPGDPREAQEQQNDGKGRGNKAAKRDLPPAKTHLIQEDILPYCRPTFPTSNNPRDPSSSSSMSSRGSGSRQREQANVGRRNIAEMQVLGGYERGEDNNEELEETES
CB1, sequence (P21554 whole entry): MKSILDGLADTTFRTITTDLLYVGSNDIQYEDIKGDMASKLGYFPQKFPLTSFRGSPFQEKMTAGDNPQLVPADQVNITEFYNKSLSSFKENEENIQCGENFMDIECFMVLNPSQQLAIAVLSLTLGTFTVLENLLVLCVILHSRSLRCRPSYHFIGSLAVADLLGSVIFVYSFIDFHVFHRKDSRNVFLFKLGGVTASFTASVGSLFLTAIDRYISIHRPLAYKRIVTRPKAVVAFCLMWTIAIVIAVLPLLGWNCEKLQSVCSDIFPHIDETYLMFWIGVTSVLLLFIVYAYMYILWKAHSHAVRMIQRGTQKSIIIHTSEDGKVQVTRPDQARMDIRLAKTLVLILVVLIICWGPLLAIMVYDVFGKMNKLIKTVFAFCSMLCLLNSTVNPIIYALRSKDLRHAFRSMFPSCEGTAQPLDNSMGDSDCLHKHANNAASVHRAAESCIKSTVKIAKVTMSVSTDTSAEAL
op-mu, sequence (P35372 whole entry): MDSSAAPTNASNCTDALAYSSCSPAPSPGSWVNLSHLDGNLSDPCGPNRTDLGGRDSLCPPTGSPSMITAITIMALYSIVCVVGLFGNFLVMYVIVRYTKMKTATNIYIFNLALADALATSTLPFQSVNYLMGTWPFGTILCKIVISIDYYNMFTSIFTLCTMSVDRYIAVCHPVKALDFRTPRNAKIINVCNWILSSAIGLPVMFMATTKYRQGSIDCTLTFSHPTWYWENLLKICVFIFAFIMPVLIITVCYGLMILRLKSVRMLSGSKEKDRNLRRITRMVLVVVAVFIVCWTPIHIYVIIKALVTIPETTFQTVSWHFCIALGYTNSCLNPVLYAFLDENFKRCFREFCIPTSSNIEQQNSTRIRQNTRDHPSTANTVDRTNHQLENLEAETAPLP
5HT1B, sequence (P28222 whole entry): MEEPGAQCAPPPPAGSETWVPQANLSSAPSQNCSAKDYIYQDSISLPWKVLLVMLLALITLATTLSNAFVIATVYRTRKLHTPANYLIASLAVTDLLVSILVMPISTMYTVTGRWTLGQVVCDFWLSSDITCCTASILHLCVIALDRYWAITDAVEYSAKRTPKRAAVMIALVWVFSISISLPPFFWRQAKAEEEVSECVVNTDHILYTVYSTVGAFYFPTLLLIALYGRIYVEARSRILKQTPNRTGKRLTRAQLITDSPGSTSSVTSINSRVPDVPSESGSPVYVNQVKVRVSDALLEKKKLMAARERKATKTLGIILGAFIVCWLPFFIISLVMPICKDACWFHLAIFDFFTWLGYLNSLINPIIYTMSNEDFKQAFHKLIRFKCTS

Structure (SMILES): CCc1cnccc1C(=O)Nc1cc2c(cc1F)NC(=O)CC2 [MBE1, 3-ethyl-N-(7-fluoro-2-oxo-3,4-dihydro-1H-quinolin-6-yl)pyridine-4-carboxamide]
inhibition at 10 µM (Eta agonist): -0.16%
inhibition at 10 µM (op-mu): 3.98%
100nM MBE1 Tm (ROBO1): 63.1814
DMSO-100nM MBE1 TM (ROBO1): -8.49
ΔTm at 1 µM (PVRL1; [2]): -15.1 °C
1uM MBE1 Tm (PVRL1): 64
inhibition at 10 µM (Alpha1A): -3.34%
100nM MBE1 Tm (RHPN2): 58.0062
DMSO-100nM MBE1 TM (RHPN2): -9.514
inhibition at 10 µM (PDE4D2): 11.8%
inhibition at 10 µM (5HT1B): 5.26%
half-life (Plasma stability (human)): > 289 min
nonspecific cytotoxicity (in words) (MDA-MB-468 cells): nontoxic
inhibition at 10 µM (CB1): -7.11%
inhibition at 10 µM (NET): -19.9%
inhibition at 10 µM (MAO-A): -8.05%
inhibition at 10 µM (Beta1): -8.49%
inhibition at 10 µM (COX1): -2.65%
ΔTm at 1 µM (CDCP1; [2]): -7.8 °C
1uM MBE1 Tm (CDCP1): 63.2685
1uM MBE1 Tm (MARCKSL1): 64

inhibition of ALDH1A3 in Aldefluor assay (in words) [1]: high potency
Structure (SMILES): CCc1ccccc1C(=O)Nc1cc2c(cc1F)NC(=O)CC2 [MBE1.5, 2-ethyl-N-(7-fluoro-2-oxo-3,4-dihydro-1H-quinolin-6-yl)benzamide]

Reference: PMC12595434, “Development of retinoid nuclear receptor pathway antagonists through targeting aldehyde dehydrogenase 1A3” (iScience, 2025)
